Consider 12 molecules from patent US10214542B2, “Modified macrocyclic compounds” (BAYER PHARMA AKTIENGESELLSCHAFT, priority 2015, dated 2019).

Assay [1] deals with T1, human PTEFb (CDK9/Cyclin T1) (Homo sapiens, UniProt P50750).
T1 construct: purchased ProQinase, Freiburg, Germany
Nature of the assay: Surface Plasmon Resonance PTEFb (Method 8). In kind it is binding. Particulars: 25° C., experimental parameters A-G per value; for Target resident time: 1/koff; for koff: read-out: Dissociation rate constant koff. The text has this: 8. Surface Plasmon Resonance PTEFb
The ability of the compounds according to the invention to bind human PTEFb may be determined using surface plasmon resonance (SPR). KD values and koff values may be measured using a Biacore® T200 instrument (GE Healthcare, Uppsala, Sweden).
For SPR measurements, recombinant human PTEFb (CDK9/Cyclin T1 recombinant human active protein kinase purchased from ProQinase, Freiburg, Germany) is immobilized using standard amine coupling (Johnsson B et al, Anal Biochem. 1991 Nov. 1; 198(2):268-77). Briefly, carboxymethylated dextran biosensor chips (CM7, GE Healthcare) are activated with N-ethyl-N′-(3-dimethylaminopropyl)-carbodiimide hydrochloride (EDC) and N-hydroxysuccinimide (NHS) according to the supplier's instructions. Human PTEFb is diluted in 1×HBS-EP+ (GE Healthcare) and injected on the activated chip surface. Subsequently, a 1:1 solution of 1 M ethanolamine-HCl (GE Healthcare) and 1×HBS-EP is injected to block unreacted groups, resulting in approximately 4000 response units (RU) of immobilized protein. A reference surface is generated by treatment with NHS-EDC and ethanolamine-HCl. Compounds are dissolved in 100% dimethylsulfoxide (DMSO, Sigma-Aldrich, Germany) to a concentration of 10 mM and subsequently diluted in running buffer (1×HBS-EP+ pH 7.4 [generated from HBS-EP+ Buffer 10× (GE Healthcare): 0.1 M HEPES, 1.5 M NaCl, 30 mM EDTA and 0.5% v/v Surfactant P20], 1% v/v DMSO). For kinetic measurements, serial dilutions of compound (0.82 nM up to 2 μM) are injected over immobilized protein. Binding kinetics is measured at 25° C. with a flow rate of 50 μl/min in running buffer. Compound concentrations are injected for 60 s followed by a dissociation time of 1800 s. The resulting sensorgrams are double-referenced against the reference surface as well as against blank injections.
The double-referenced sensorgrams are fit to a simple reversible Langmuir 1:1 reaction mechanism as implemented in the Biacore® T200 evaluation software 2.0 (GE Healthcare). In cases were full compound dissociation has not occurred at the end of the dissociation phase, the Rmax parameter (response at saturation) is fit as local variable. In all other cases, Rmax is fit as global variable.
Slight variations of experimental parameters are indicated by letters (A-G): […]

The target in assay [2] is T1, human PTEFb (CDK9/Cyclin T1). Nature of the assay: Surface Plasmon Resonance PTEFb (Method 8). The note with it: 37° C., experimental parameters E; for Target resident time: 1/koff; for koff: read-out: Dissociation rate constant koff. In kind it is binding.

“And” between values parts separate entries of the source, which are not always exact repeats. Equal values may be shown once. Read-outs that look alike come from different tables or passages of the source. Marks after values point to notes of the source that are not given here. Bounds are passed on as bounds.

T1 sequence (P50750 whole entry): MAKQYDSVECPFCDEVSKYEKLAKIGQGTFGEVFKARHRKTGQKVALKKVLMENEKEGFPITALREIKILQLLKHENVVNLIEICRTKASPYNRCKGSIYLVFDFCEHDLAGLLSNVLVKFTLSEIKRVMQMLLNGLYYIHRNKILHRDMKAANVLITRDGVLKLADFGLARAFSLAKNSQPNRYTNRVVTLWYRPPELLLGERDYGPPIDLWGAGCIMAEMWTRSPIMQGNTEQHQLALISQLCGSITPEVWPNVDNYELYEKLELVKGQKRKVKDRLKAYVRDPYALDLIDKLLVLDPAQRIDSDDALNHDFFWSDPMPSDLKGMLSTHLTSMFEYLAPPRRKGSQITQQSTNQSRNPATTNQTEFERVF
T1 sequence (O60563 whole entry partner): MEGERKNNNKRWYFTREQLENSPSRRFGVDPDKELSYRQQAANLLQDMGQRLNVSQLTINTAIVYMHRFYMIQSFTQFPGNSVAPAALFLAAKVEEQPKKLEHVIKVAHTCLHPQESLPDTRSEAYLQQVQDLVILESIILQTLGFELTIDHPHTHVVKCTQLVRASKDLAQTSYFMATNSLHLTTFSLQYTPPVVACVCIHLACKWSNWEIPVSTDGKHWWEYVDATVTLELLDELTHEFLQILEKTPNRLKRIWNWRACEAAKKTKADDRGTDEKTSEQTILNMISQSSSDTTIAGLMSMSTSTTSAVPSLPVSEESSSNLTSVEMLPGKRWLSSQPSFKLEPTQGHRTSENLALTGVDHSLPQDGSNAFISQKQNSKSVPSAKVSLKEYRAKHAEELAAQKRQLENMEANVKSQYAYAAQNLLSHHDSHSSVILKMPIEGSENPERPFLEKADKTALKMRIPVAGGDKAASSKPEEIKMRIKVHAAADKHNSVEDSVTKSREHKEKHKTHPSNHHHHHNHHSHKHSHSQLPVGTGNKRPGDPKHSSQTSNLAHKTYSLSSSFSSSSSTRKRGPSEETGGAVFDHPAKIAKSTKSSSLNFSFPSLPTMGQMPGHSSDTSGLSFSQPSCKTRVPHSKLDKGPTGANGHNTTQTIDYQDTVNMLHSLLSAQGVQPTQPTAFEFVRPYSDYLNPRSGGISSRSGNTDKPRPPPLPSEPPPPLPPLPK

By koff is commonly meant the rate constant with which the complex falls apart. For `CS(=O)(Cc1cc2nc(c1)Nc1cc(c(F)cn1)-c1ccc(F)cc1OCCCCN2)=NC(=O)OCc1ccccc1` (racemic) [Example 2, (rac)-Benzyl[{[16,20-difluoro-3,4,5,6-tetrahydro-2H,12H-11,7-(azeno)-13,17-(metheno)-1,6,12,14-benzoxatriazacyclononadecin-9-yl]methyl}(methyl)oxido-λ^6-sulfanylidene]carbamate], in assay [1], the Target resident time is 44.9 min and 33.1 min; the “Dissociation rate constant koff” value was 0.000504 s⁻¹; the dissociation rate constant (koff) is 0.000371 s⁻¹.

As to `C[S+]([O-])Cc1cc2nc(c1)OCCCCc1cc(F)ccc1-c1cc(ncc1F)N2` (racemic) [Example 5, (rac)-2,18-Difluoro-9-[(methylsulfinyl)methyl]-13,14,15,16-tetrahydro-6H-7,11-(azeno)-5,1-(metheno)-12,4,6-benzoxadiazacyclooctadecine], in assay [1], the Target resident time worked out at 17.2 min and the off-rate constant (koff) is 0.000968 s⁻¹.

As to `CC(C)(C)OC(=O)N=S(C)(=O)Cc1cc2nc(c1)Nc1cc(c(F)cn1)-c1ccc(F)cc1OCCCN2` (racemic) [Example 7, (rac)-tert-butyl[{[15,19-difluoro-2,3,4,5-tetrahydro-11H-10,6-(azeno)-16,12-(metheno)-1,5,11,13-benzoxatriazacyclooctadecin-8-yl]methyl}(methyl)oxido-λ^6-sulfanylidene]carbamate], in assay [1], the Target resident time is listed as >666* min and the off-rate (koff) was below 2.5e-05 s⁻¹.

In the case of `CN1CCCCOc2cc(F)ccc2-c2cc(ncc2F)Nc2cc(CS(C)(=N)=O)cc1n2` (racemic) [Example 11, (rac)-16,20-difluoro-6-methyl-9-[(S-methylsulfonimidoyl)methyl]-3,4,5,6-tetrahydro-2H-7,11-(azeno)-17,13-(metheno)-1,6,12,14-benzoxatriazacyclononadecine], in assay [1], the Target resident time was >666* min and the koff was below 2.5e-05 s⁻¹.

On to `CC(C)(C)OC(=O)N=S(C)(=O)Cc1cc2cc(c1)OCCCCNc1cc(F)ccc1-c1nc(ncc1F)N2` (racemic) [Example 15, (rac)-tert-butyl[{[16,20-difluoro-2,3,4,5-tetrahydro-1H,12H-13,17-(azeno)-11,7-(metheno)-6,1,12,14-benzoxatriazacyclononadecin-9-yl]methyl}(methyl)oxido-λ^6-sulfanylidene]carbamate], for which, in assay [1], the Target resident time was > 666 min and 372.9 min; the “Dissociation rate constant koff” value was determined as 4.47e-05 s⁻¹; the koff is below 2.5e-05 s⁻¹.

As for `CS(=N)(=O)Cc1cc2cc(c1)OCCCCNc1cc(F)ccc1-c1nc(ncc1F)N2` (racemic) [Example 16, (rac)-16,20-difluoro-9-[(S-methylsulfonimidoyl)methyl]-2,3,4,5-tetrahydro-1H-17,13-(azeno)-7,11-(metheno)-6,1,12,14-benzoxatriazacyclononadecine], in assay [2], the Target resident time is on record as 46.3* min and the koff came out at 0.00036 s⁻¹.

As to `CN1CCCCNc2cc(F)ccc2-c2nc(ncc2F)Nc2cc(CS(C)(=N)=O)cc1c2.O=CO` (racemic) [Example 17, (rac)-16,20-difluoro-6-methyl-9-[(S-methylsulfonimidoyl)methyl]-1,2,3,4,5,6-hexahydro-12H-17,13-(azeno)-11,7-(metheno)-1,6,12,14-benzotetraazacyclononadecine; salt with formic acid], in assay [2], the Target resident time is given as 115.7* min and the koff stood at 0.000144 s⁻¹.

For the molecule `C[S+]([O-])Cc1cc2nc(c1)OCCCCCc1cc(F)ccc1-c1cc(ncc1F)N2` (racemic) [Example 19, (rac)-2,19-difluoro-9-[(methylsulfinyl)methyl]-14,15,16,17-tetrahydro-6H,13H-7,11-(azeno)-5,1-(metheno)-12,4,6-benzoxadiazacyclononadecine], in assay [1], the Target resident time is given as 4.8* min and the off-rate constant (koff) turned out to be 0.00345 s⁻¹.

Regarding `CS(=N)(=O)Cc1cc2nc(c1)OCCCCCc1cc(F)ccc1-c1cc(ncc1F)N2` (racemic) [Example 20, (rac)-2,19-difluoro-9-[(S-methylsulfonimidoyl)methyl]-14,15,16,17-tetrahydro-6H,13H-7,11-(azeno)-5,1-(metheno)-12,4,6-benzoxadiazacyclononadecine], in assay [1], the Target resident time is given as 14.7* min and the off-rate (koff) stood at 0.00113 s⁻¹.

On to `CS(=N)(=O)Cc1cc2cc(c1)OCCCCSc1cc(F)ccc1-c1nc(ncc1F)N2` (racemic) [Example 22, (rac)-16,20-difluoro-9-[(S-methylsulfonimidoyl)methyl]-2,3,4,5-tetrahydro-12H-17,13-(azeno)-11,7-(metheno)-6,1,12,14-benzoxathiadiazacyclononadecine], for which, in assay [2], the Target resident time was 17.5* min and the koff turned out to be 0.000954 s⁻¹.

In the case of `CN1CCCCOc2cc(F)ccc2-c2nc(ncc2F)Nc2cc(CS(C)(=N)=O)cc1c2` (racemic) [Example 23, (rac)-16,20-difluoro-6-methyl-9-[(S-methylsulfonimidoyl)methyl]-3,4,5,6-tetrahydro-2H,12H-13,17-(azeno)-11,7-(metheno)-1,6,12,14-benzoxatriazacyclononadecine], in assay [1], the Target resident time is given as 87.3* min and the koff is 0.000191 s⁻¹.

Regarding `CSCc1cc2nc(c1)OCCCCc1cc(F)ccc1-c1cc(ncc1F)N2` [Example 4, 2,18-Difluoro-9-[(methylsulfanyl)methyl]-13,14,15,16-tetrahydro-6H-7,11-(azeno)-5,1-(metheno)-12,4,6-benzoxadiazacyclooctadecine], in assay [1], the Target resident time came to 14.6 min and the off-rate (koff) amounted to 0.00114 s⁻¹.
